Each block holds one molecule with its values, some of them ahead of it.
Experiments:
[1] = Encapsulation yield, indirect quantification in external water after centrifugation; type: physicochemical; conditions: for encapsulation yield (plateau): hydrophilic molecule in aqueous core, tp = 2 h, highest monomer (TDI) contents
From the text: (i) Hydrophilic materials, eventually, have to be shared out into the w/o nanoemulsions water droplets, and it may be done right from the start included in the water phase of the macro-emulsions preparations. Another higher effective manner consists in injecting a very small volume (no more than 2% (v./v.)) of very concentrated aqueous solution, in the microemulsion maintained at the PIT, after the temperature cycling, and before the isopentane dilution. The droplet injected in the (still) stirred microemulsion, very rapidly integrates the aqueous part of the bicontinuous network. As a result of the oil dilution, the nanoemulsion immediately forms, allowing a very homogeneous dispersion in oil of the injected hydrophilic molecule. Incorporating the hydrophilic species through this original manner, eventually prevents the molecules degradation during processing potentially due to the temperature cycling treatment. The hydrophilic model molecules were chosen with very different molecular weight: The first one is a labile dye, methylene blue (MB), the second is a protein, the bovin serum albumin fluorecein isothiocyanate labeled (BSA-FITC) and the last one is a fluorescent compound, Doxorubicin Chlorhydrate (DOX), which is an anti-cancer drug.
(ii) On the other hand, the lipophilic species were introduced in the oil phase of the nanoemulsion, after the chosen time of polymerization (to maximally prevent the potential interactions with the monomer), and before the stage of isopentane evaporation. Thereby, after the complete isopentane evaporation, the lipophilic added materials will be equally shared onto the droplets enclosed in the residual mineral oil, that is, trapped in the amorphous oil/non-ionic surfactant matrix. It finally appears as a marker of the residual mineral oil location, and determining a significant encapsulation yield should support the proposed multi-functional water/oil structure. […] It is important to note here, that these processes of nanocapsule formulation containing hydrophilic and lipophilic agents can be still considered as only involving a low quantity of energy (often called ‘low-energy’ methods). […]
All the quantifications were performed following an indirect method, after separating the external water to the nanocapsules by centrifugation (30 min, 14500 rpm), it was freeze-dried (RP2V, SGD, Le Coudray Saint-Germer, France) to ensure the destruction of the potentially remaining nanocapsules (and also to prevent their additional light adsorption in the quantification process). Next, the freeze-dried samples are solubilized in dichloromethane (DCM), and the different incorporated molecules except DOX which are present in the external water are simply quantified using a Spectrophotometer UV-visible Uvikon 922 Spectrophotometer (Bio-Tek Koutron instruments, Saint-Quentin-en-Yvelines, France). DOX was quantified using a spectrofluorimeter (Fluoroskan Ascent FL, type 374, Thermo Electron Corporation, Finland). […]
Owing to the real challenge that constitutes the encapsulation of hydrophilic agent into nanocapsules themselves dispersed in aqueous continuous phase, the first result will concern the extent in which the selected hydrophilic species, methylene blue and BSA-FITC, can be encapsulated into such colloids. The molecules incorporation during the nanoemulsion generation step as well as the molecule quantification for determining the encapsulation yield, follow the above-described procedures. […]

[2] = Doxorubicin release kinetics from particles (P), dialysis against PBS; type: physicochemical; conditions: DOX-loaded particles (P), dialysis 15 kDa membrane, PBS pH 7.4, 37° C.
Experimental: To establish the drug release kinetics (see FIG. 8), 2 mL of freshly prepared suspension containing DOX-loaded particle (P), enclosed into a dialysis 15 kDa membrane (Spectra/Por® Membranes, Fisher Bioblock Scientific, Illkirch, France), were added to 40 mL of phosphate buffered saline (PBS, pH 7.4) from Sigma. The flack was weakly mechanically stirred (125 rpm) in darkness, at 37° C. (in a boiler, Julabo SW22, JULABO Labortechnik GmbH, Seelbach, Germany). Next, 500 μL of release medium were collected at specified time points and the DOX concentrations were determined by spectrofluorimetry, as previously described. This collected volume was systematically replaced by the same volume of fresh PBS for insuring the “sink” experimental conditions.

[3] = test system: NIH/3T3 cells; test: Cytotoxicity of particles (P) without active ingredient, cell survival by MTT test; type: cell-based, Mus musculus; parameters: unit: % of control; conditions: DMSO, control = 100.00
Experimental: The cytotoxicity of particles (P) prepared according to 1.2 hereabove—without any active ingredient encapsulated (hereafter called NCB)—was assessed on NIH/3T3 cells (fibroblasts of mice Mus musculus). The […] were exposed to various particle concentrations, during 4, 24, 48 or 72 hours. The cell survival was determined by the MTT test.

yield of encapsulated doxorubicin ([1]; in aqueous droplets (no monomer)): 30%
yield of encapsulated doxorubicin ([1]; in polymeric nanocapsules (interfacial polymerization with tolylene 2,4-diisocyanate)): 70%
release with time (maximum given by the curve fit) [2]: ~100%
Molecule: COc1cccc2c1C(=O)c1c(O)c3c(c(O)c1C2=O)C[C@@](O)(C(=O)CO)C[C@@H]3O[C@H]1C[C@H](N)[C@H](O)[C@H](C)O1 [DOX, Doxorubicin Chlorhydrate]

encapsulation yield (plateau) [1]: about 0.9
Molecule: CN(C)c1ccc2nc3ccc(=[N+](C)C)cc-3sc2c1 [MB, Methylene Blue]

Molecule: C[S+](C)[O-] [DMSO]
cell survival (MTT test), mean ([3]; 4 H exposure): 46.75
cell survival (MTT test), mean ([3]; 24 H exposure): 10.22
cell survival (MTT test), mean ([3]; 48 H exposure): 4.79
cell survival (MTT test), mean ([3]; 72 H exposure): 5.00

encapsulation yield ([1]; lipophilic molecule in oil shell, simultaneously encapsulated with MB, tp 2 hours, no influence of monomer amount): around 0.92
Molecule: Oc1ccc2ccccc2c1N=Nc1ccc(N=Nc2ccccc2)cc1 [RS, red Soudan III]

Molecule: Bovine Serum Albumin-Fluorescein Isothiocyanate labeled [BSA-FITC]
encapsulation yield (plateau) [1]: about 0.9
